The supplement of paper PMC6045584
± gives the standard deviation of the averaged measurements.

Legend:
LENVATINIB = compound: COc1cc2nccc(Oc3ccc(NC(=O)NC4CC4)c(Cl)c3)c2cc1C(N)=O [LENVATINIB]; assay: surviving fraction relative to DMSO-only wells; higher = less growth inhibition; conditions: exposure time: 5 days
In short: (§1)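 Viability was scored with CellTiter-Glo luminescence and normalised to the median of DMSO-only wells as surviving fraction. Beforehand, log-phase tumour cell lines were seeded at 250–500 cells per well in 384-well plates, allowed 24 hours, and exposed continuously for five days to inhibitors at 0.5, 1, 5, 10, 50, 100, 500 and 1000 nM. Only lines whose three screens gave replicate Pearson r >0.7 and median Z' >0.3 were kept.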

[1] = compound: C[C@@H]1CN(CC(=O)Nc2ccc3c(c2)Cc2cccc(-c4cc(=O)cc(N5CCOCC5)o4)c2S3)C[C@H](C)O1; assay: as above; conditions: exposure time: 5 days
In short: as §1

| Test System | surviving fraction (LENVATINIB; 0.5 nM) | surviving fraction (LENVATINIB; 1 nM) | surviving fraction (LENVATINIB; 5 nM) | surviving fraction (LENVATINIB; 10 nM) | surviving fraction (LENVATINIB; 50 nM) | surviving fraction (LENVATINIB; 100 nM) | surviving fraction (LENVATINIB; 500 nM) | surviving fraction (LENVATINIB; 1000 nM) | surviving fraction ([1]; 0.5 nM) | surviving fraction ([1]; 1 nM) | surviving fraction ([1]; 5 nM) | surviving fraction ([1]; 10 nM) | surviving fraction ([1]; 50 nM) | surviving fraction ([1]; 100 nM) | surviving fraction ([1]; 500 nM) | surviving fraction ([1]; 1000 nM) |
| --- | --- | --- | --- | --- | --- | --- | --- | --- | --- | --- | --- | --- | --- | --- | --- | --- |
| HSSYII SYNOVIAL | 0.933 ± 0.057 | 0.961 ± 0.028 | 0.952 ± 0.018 | 0.942 ± 0.06 | 0.842 ± 0.026 | 0.724 ± 0.024 | 0.38 ± 0.024 | 0.3 ± 0.017 | 0.975 ± 0.027 | 0.956 ± 0.032 | 0.931 ± 0.015 | 0.99 ± 0.041 | 0.891 ± 0.011 | 0.867 ± 0.043 | 0.84 ± 0.055 | 0.74 ± 0.041 |
| HT1080 SOFT TISSUE | 1 ± 0.043 | 1.01 ± 0.051 | 1 ± 0.033 | 1.02 ± 0.032 | 1 ± 0.013 | 0.978 ± 0.021 | 1 ± 0.039 | 0.987 ± 0.026 | 1.01 ± 0.026 | 1.04 ± 0.027 | 1.01 ± 0.04 | 1.02 ± 0.022 | 0.987 ± 0.054 | 1.01 ± 0.051 | 0.962 ± 0.016 | 0.846 ± 0.029 |
| HU09 BONE | 0.925 ± 0.039 | 0.985 ± 0.079 | 0.97 ± 0.014 | 0.937 ± 0.13 | 0.649 ± 0.075 | 0.587 ± 0.021 | 0.33 ± 0.045 | 0.288 ± 0.034 | 0.994 ± 0.096 | 0.996 ± 0.1 | 1.13 ± 0.061 | 1.1 ± 0.14 | 1.03 ± 0.12 | 1.42 ± 0.58 | 0.778 ± 0.065 | 0.763 ± 0.14 |
| HUO3N1 BONE | 1.05 ± 0.057 | 1.04 ± 0.058 | 1.03 ± 0.013 | 0.961 ± 0.053 | 0.967 ± 0.034 | 0.876 ± 0.018 | 0.764 ± 0.0072 | 0.676 ± 0.051 | 1.01 ± 0.026 | 1 ± 0.031 | 1.05 ± 0.041 | 1.04 ± 0.041 | 1.04 ± 0.023 | 1.03 ± 0.025 | 0.979 ± 0.027 | 0.907 ± 0.026 |
| JIMT1 BREAST | 0.987 ± 0.026 | 1.03 ± 0.0053 | 1.03 ± 0.026 | 1.03 ± 0.052 | 1.06 ± 0.068 | 1.04 ± 0.011 | 1 ± 0.015 | 1.08 ± 0.011 | 0.91 ± 0.034 | 0.924 ± 0.022 | 0.936 ± 0.02 | 0.952 ± 0.031 | 0.956 ± 0.013 | 1 ± 0.038 | 0.971 ± 0.03 | 0.887 ± 0.024 |
| JURKAT HAEMATOPOIETIC AND LYMPHOID TISSUE | 1.06 ± 0.011 | 1.08 ± 0.024 | 1.03 ± 0.035 | 1.02 ± 0.041 | 1 ± 0.039 | 1.02 ± 0.038 | 1.013 ± 0.009 | 0.964 ± 0.032 | 1.1 ± 0.013 | 1.123 ± 0.0098 | 1.08 ± 0.016 | 1.09 ± 0.026 | 1.05 ± 0.026 | 1.03 ± 0.029 | 1.01 ± 0.018 | 0.96 ± 0.029 |
| KPD BONE | 1 ± 0.019 | 0.99 ± 0.067 | 1.01 ± 0.078 | 1.01 ± 0.093 | 1 ± 0.11 | 1.02 ± 0.11 | 0.948 ± 0.03 | 0.814 ± 0.037 | 0.979 ± 0.039 | 0.946 ± 0.05 | 1.02 ± 0.047 | 1.01 ± 0.068 | 1 ± 0.092 | 1.01 ± 0.049 | 0.865 ± 0.02 | 0.7 ± 0.034 |
| LM7 BONE | 0.974 ± 0.11 | 0.951 ± 0.066 | 1.03 ± 0.074 | 0.973 ± 0.086 | 1.07 ± 0.12 | 1.03 ± 0.041 | 0.939 ± 0.022 | 0.952 ± 0.11 | 0.909 ± 0.046 | 0.946 ± 0.031 | 0.94 ± 0.048 | 1.09 ± 0.064 | 0.947 ± 0.052 | 0.896 ± 0.033 | 0.798 ± 0.063 | 0.78 ± 0.097 |
| LNCAP PROSTATE | 1.16 ± 0.031 | 0.973 ± 0.044 | 0.904 ± 0.17 | 0.896 ± 0.1 | 1.02 ± 0.13 | 0.924 ± 0.16 | 0.909 ± 0.12 | 0.533 ± 0.073 | 1.08 ± 0.12 | 1.12 ± 0.15 | 1.11 ± 0.11 | 1.12 ± 0.16 | 1.4 ± 0.029 | 1.43 ± 0.095 | 1.4 ± 0.11 | 1.21 ± 0.15 |
| MCF7 BREAST | 0.954 ± 0.061 | 0.903 ± 0.056 | 0.954 ± 0.059 | 0.931 ± 0.076 | 0.971 ± 0.034 | 0.978 ± 0.11 | 0.942 ± 0.03 | 0.934 ± 0.073 | 0.946 ± 0.053 | 0.874 ± 0.035 | 0.902 ± 0.033 | 0.888 ± 0.012 | 0.99 ± 0.058 | 0.955 ± 0.03 | 0.933 ± 0.019 | 1 ± 0.06 |
